In one test the target is T1, sigma sites (Mus musculus, UniProt O55242).
T1 construct: displace tritiated sigma ligands in vivo; from tissue; host or cells: sites in the living animal after s.c. dosing
Kind of test: Displacement of tritiated (+)-SKF 10047 sigma ligand in vivo. To be noted: sc, s.c. dosing, read-out: effective dose for displacing 50% of ligand (ED50). Here is the method: The ability of the test compounds to displace tritiated sigma ligands in vivo was determined by a modification of the method of Ferris et al., Life Sci., 1986, 38, 2329. In these experiments the sigma ligand used was tritiated (+)-SKF 10047.

The conditions of test [1]: Indian J. Chem., Sect. B, 1979, 17, 239; cited from earlier work.
Another test concerns sigma recognition site. To be noted: cited from earlier work.
In test [2] the test system is N-methyl-D-aspartate (NMDA) ion-channel complex. The note with it: cited from earlier work.
The next test relates to dopamine D2 receptors. The note with it: cited from earlier work.

Each structure is given as a SMILES string. Where only a bound is given, the exact number is not on record here.

T1 sequence (O55242 whole entry): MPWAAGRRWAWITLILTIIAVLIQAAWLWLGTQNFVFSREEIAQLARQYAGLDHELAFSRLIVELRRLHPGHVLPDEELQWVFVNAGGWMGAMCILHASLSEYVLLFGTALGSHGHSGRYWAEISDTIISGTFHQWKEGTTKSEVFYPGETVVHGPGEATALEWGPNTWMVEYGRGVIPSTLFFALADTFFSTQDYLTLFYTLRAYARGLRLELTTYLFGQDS

In the case of `CCCCN1CC[C@H]2c3ccccc3CC[C@@H]2C1` (relative stereo) [Example 2, trans-3-Butyl-1,2,3,4,4a,5,6,10b-octahydrobenz[f]isoquinoline], the ED50 at sigma sites is less than 1 mg/kg.

With `c1ccc2c(c1)CC[C@@H]1CN(C3CCCCC3)CC[C@@H]21` (relative stereo) [Example 4, trans-3-Cyclohexyl-1,2,3,4,4a,5,6,10b-octahydrobenz[f]isoquinoline], on sigma sites, the ED50 is less than 1 mg/kg. As to `O=C(CCCN1CCC2c3ccccc3CCC2C1)c1ccc(F)cc1` (stereo not drawn) [3-[3-(4-fluorobenzoyl)propyl]-1,2,3,4,4a,5,6,10b-octahydrobenz[f]isoquinoline], in test [1], the CNS depressant activity result is given as “weak CNS depressant activity” and the hypotensive activity result is recorded as “significant hypotensive activity”. For `C=CCN1CCC2(C)c3cc(O)ccc3CC1C2C` (stereo not drawn) [N-allylnormetazocine (SKF 10047), N-allylnormetazocine], the “potency/affinity at sigma sites” value with sigma recognition site was “having an affinity”. Besides, in test [2], the “interaction with NMDA ion-channel complex” value is on record as “interacts strongly”.

`O=C(CCCN1CCC(O)(c2ccc(Cl)cc2)CC1)c1ccc(F)cc1` [haloperidol]: the “relative potency at sigma sites versus D2 receptors” value in the test with sigma recognition site (sigma sites and D2 receptors) is “equally potently”. With `C[C@@H]1CN(CCCn2c3ccccc3c3ccccc32)C[C@H](C)N1` [rimcazole], in the test with sigma recognition site, the “potency/affinity at sigma sites” value is given as “only moderate potency”. The “activity at dopamine D2 receptors” value in the test with dopamine D2 receptors is “essentially inactive”.

These data come from patent US5294618A, “Octahydrobenzisoquinoline derivatives as antipsychotic agents” (Merck Sharp & Dohme Limited, priority 1989, dated 1994).
